In test [1] the test system is p-ERK in KRAS^G12D mutant AsPC-1 cells. The test can be described thus: Assay of p-ERK inhibition in AsPC-1 cells (HTRF). Format: cell-based. As to conditions: HTRF method, 1 hour incubation with compound.
Method: • 1) ASPC-1 cells were inoculated in a transparent 96-well cell culture plate, and each well contained 80 μL of cell suspension and 8000 cells. The cell plate was inoculated in a carbon dioxide incubator at 37° C. overnight; • 2) After completion of the incubation, the cell supernatant was discarded. […] 2 μL of the compound was weighed and added to 78 μL of a cell starvation medium. After the mixture was mixed thoroughly, 20 μL of the solution of compound was weighed and added to the corresponding well of the cell plate. […] 50 μL of cell lysate was added to each well. […] The mixture was incubated at room temperature for 4 hours; • 7) After completion of the incubation, HTRF was read with multi-label analyzer: excitation: 320 nm, emission: 615 nm, 665 nm.
Test [2] deals with p-ERK in KRAS^G12D mutant AGS cells. The test can be described thus: Assay of p-ERK inhibition in AGS cells (HTRF). The test is classed as cell-based. To be noted: Homo sapiens, 3 hours incubation with compound. Here is the method:
• 1) AGS cells were inoculated in a transparent 96-well cell culture plate, and each well contained 80 μL of cell suspension and 10000 cells. […] 80 μL of medium containing 0.02% serum was added to each well. The cell plate was incubated in a carbon dioxide incubator at 37° C. overnight; • 3) 2 μL of the compound was weighed and added to 78 μL of the cell medium. After the mixture was mixed thoroughly, 20 μL of the solution of compound was weighed and added to the corresponding well of the cell plate. […] 50 μL of 1× cell lysate was added to each well. […] The mixture was incubated at room temperature for at least 4 hours; • 7) After completion of the incubation, HTRF was read with multi-label analyzer: excitation: 320 nm, emission: 615 nm, 665 nm; • 8). IC50 of the compound to be assayed was calculated. […]
• 1) AGS cells were inoculated in a transparent 96-well cell culture plate, and each well contained 80 μL of cell suspension and 10000 cells. […] The mixture was incubated at room temperature for at least 4 hours; • 7) After completion of the incubation, HTRF was read with multi-label analyzer: excitation: 320 nm, emission: 615 nm, 665 nm; • 8). IC50 of the compound to be assayed was calculated.
(In general: TR-FRET usually uses a lanthanide donor and a delayed reading to cut background.)

Counter-ions that a name gives are not always drawn.

By IC50 is commonly meant the point on the concentration scale where inhibition reaches its midpoint. `CC#Cc1cc(N)c(F)c([C@@H]2Cc3nc(OC[C@]45C=CCN4CCC5)nc(N4CC5CCC(C4)N5)c3CO2)c1C(F)(F)F` [Compound 10 hydrochloride]: the IC50 in test [1] worked out at 1.1 nM. As for `CC#Cc1cc(N)c(F)c([C@H]2Cc3nc(OC[C@]45CCCN4C/C(=C\F)C5)nc(N4CC5CCC(C4)N5)c3CO2)c1C(F)(F)F` [Compound 11 formate], the IC50 in test [1] was found to be 0.9 nM. For the compound `C#Cc1c(F)ccc2cc(N)cc(C3Cc4nc(OC[C@@]56CCCN5C[C@H](F)C6)nc(N5CC6CCC(C5)N6)c4CO3)c12` (stereo partly drawn) [Compound 3 hydrochloride], the IC50 in test [2] amounted to 64.6 nM.

The record behind these values is US20250109146A1, “BRIDGED RING-SUBSTITUTED HETEROARYL-PYRAN DERIVATIVE, AND USE THEREOF” (priority 2022, published 2025).
